Measured values taken from ChEMBL document CHEMBL5696442, “Discovery of type II inhibitors of TGFβ-activated kinase 1 (TAK1) and mitogen-activated protein kinase kinase kinase kinase 2 (MAP4K2)” (J Med Chem, 2015).
Active and inactive are the calls of the source. No cut-off for these calls is given here.

Legend:
[1] = molecular target: Serine/threonine-protein kinase MARK2 (Homo sapiens) (UniProt Q7KZI7); assay: Inhibition of MARK2 Lys1 labeling site harbouring HILTGKEVAVKIIDKTQLNSSSLQK in human Huh-7 cells at 1 uM by KiNativ Profiling analysis relative to control; assay type: cell-based
Serine/threonine-protein kinase MARK2 (Homo sapiens), sequence (Q7KZI7 whole entry): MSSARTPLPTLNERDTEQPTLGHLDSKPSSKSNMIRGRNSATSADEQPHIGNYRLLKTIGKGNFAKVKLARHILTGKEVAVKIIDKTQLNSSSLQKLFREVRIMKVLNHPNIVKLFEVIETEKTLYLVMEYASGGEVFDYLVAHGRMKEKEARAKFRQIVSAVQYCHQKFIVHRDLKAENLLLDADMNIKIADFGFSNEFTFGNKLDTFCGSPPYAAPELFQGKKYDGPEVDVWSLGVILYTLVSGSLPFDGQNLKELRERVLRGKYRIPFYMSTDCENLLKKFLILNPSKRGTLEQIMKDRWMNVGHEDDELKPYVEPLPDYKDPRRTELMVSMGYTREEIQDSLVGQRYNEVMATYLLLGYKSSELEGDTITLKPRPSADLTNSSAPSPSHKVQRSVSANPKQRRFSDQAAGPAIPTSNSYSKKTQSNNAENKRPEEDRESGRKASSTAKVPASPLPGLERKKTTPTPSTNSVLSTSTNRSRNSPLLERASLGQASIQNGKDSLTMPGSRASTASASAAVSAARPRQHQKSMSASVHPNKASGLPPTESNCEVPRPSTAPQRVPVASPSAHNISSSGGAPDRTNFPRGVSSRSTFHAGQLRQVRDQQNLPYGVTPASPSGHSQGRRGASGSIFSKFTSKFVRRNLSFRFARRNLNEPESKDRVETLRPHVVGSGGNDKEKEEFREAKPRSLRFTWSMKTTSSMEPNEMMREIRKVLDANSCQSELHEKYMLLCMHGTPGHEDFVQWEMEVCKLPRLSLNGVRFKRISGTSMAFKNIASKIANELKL

[2] = Inhibition of p70S6K ATP Loop labeling site in human Huh-7 cells at 1 uM by KiNativ Profiling analysis relative to control; conditions: condition cancer
[3] = molecular target: Serine/threonine-protein kinase 38 (Homo sapiens) (UniProt Q15208); assay: Inhibition of NDR1 Lys1 labeling site in human Huh-7 cell lysate at 1 uM by KiNativ Profiling analysis relative to control; assay type: subcellular
[4] = Inhibition of KHS1 Lys2 labeling site harbouring DIKGANILLTDHGDVK in human Huh-7 cell lysate at 1 uM by KiNativ Profiling analysis relative to control; conditions: condition cancer
[5] = molecular target: Serine/threonine-protein kinase MARK2 (Homo sapiens) (UniProt Q7KZI7); assay: Inhibition of MARK2 Lys2 labeling site harbouring FIVHRDLKAENLLLDADMNIK in human Huh-7 cell lysate at 1 uM by KiNativ Profiling analysis relative to control; assay type: subcellular
[6] = molecular target: Serine/threonine-protein kinase WNK3 (Homo sapiens) (UniProt Q9BYP7); assay: Inhibition of Wnk3 Lys2 labeling site in human Huh-7 cells at 1 uM by KiNativ Profiling analysis relative to control; assay type: cell-based
Serine/threonine-protein kinase WNK3 (Homo sapiens), sequence (Q9BYP7 whole entry): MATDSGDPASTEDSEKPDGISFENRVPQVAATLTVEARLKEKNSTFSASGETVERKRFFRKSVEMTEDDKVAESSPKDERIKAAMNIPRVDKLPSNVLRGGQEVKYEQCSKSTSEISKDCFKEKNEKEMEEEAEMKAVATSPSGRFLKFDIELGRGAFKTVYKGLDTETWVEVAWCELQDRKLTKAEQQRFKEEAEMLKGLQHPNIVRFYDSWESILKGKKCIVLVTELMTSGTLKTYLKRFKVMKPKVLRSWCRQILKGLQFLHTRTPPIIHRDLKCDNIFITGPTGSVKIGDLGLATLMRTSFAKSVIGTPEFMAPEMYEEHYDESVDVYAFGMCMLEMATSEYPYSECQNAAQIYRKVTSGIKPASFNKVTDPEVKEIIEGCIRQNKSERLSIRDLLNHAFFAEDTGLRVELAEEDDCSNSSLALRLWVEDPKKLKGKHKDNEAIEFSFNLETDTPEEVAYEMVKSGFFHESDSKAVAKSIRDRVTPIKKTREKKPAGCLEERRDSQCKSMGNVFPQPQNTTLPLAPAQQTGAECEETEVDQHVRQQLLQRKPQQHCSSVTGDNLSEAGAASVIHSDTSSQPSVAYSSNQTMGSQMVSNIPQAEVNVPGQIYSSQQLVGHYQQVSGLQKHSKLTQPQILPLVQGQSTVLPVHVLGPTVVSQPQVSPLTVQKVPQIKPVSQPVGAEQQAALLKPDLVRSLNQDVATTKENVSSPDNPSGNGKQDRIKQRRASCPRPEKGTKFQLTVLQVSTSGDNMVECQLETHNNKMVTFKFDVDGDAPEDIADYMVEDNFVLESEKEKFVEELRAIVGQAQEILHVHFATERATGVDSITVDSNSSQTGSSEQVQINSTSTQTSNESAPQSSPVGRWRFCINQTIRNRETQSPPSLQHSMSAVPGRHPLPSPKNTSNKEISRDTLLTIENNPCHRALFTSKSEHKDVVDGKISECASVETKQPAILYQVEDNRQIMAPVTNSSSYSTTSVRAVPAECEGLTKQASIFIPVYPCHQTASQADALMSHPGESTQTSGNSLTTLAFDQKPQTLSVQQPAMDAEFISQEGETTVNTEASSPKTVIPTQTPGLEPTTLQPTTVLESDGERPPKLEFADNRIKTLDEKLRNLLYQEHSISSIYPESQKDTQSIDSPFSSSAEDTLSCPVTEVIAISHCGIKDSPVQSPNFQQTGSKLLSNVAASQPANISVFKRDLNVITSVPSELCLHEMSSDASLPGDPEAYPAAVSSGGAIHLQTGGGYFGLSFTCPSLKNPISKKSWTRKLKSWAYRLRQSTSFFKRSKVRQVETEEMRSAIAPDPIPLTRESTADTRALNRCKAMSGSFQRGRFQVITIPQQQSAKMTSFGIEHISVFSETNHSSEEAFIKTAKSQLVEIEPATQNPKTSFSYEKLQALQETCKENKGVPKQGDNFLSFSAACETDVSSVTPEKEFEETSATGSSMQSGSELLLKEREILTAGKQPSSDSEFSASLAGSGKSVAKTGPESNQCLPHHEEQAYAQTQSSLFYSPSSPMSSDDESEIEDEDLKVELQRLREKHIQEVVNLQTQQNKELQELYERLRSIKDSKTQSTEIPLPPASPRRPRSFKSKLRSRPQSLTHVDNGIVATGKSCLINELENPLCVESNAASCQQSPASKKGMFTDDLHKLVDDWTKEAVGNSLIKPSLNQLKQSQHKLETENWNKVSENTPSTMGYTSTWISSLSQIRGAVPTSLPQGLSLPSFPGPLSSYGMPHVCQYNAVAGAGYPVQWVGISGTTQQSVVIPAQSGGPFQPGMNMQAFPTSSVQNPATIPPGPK

[7] = molecular target: Epidermal growth factor receptor (Homo sapiens) (UniProt P00533); assay: Inhibition of EGFR Lys1 labeling site harbouring GLWIPEGEKVKIPVAIKELR in human Huh-7 cells at 1 uM by KiNativ Profiling analysis relative to control; assay type: cell-based
Epidermal growth factor receptor (Homo sapiens), sequence (P00533 whole entry): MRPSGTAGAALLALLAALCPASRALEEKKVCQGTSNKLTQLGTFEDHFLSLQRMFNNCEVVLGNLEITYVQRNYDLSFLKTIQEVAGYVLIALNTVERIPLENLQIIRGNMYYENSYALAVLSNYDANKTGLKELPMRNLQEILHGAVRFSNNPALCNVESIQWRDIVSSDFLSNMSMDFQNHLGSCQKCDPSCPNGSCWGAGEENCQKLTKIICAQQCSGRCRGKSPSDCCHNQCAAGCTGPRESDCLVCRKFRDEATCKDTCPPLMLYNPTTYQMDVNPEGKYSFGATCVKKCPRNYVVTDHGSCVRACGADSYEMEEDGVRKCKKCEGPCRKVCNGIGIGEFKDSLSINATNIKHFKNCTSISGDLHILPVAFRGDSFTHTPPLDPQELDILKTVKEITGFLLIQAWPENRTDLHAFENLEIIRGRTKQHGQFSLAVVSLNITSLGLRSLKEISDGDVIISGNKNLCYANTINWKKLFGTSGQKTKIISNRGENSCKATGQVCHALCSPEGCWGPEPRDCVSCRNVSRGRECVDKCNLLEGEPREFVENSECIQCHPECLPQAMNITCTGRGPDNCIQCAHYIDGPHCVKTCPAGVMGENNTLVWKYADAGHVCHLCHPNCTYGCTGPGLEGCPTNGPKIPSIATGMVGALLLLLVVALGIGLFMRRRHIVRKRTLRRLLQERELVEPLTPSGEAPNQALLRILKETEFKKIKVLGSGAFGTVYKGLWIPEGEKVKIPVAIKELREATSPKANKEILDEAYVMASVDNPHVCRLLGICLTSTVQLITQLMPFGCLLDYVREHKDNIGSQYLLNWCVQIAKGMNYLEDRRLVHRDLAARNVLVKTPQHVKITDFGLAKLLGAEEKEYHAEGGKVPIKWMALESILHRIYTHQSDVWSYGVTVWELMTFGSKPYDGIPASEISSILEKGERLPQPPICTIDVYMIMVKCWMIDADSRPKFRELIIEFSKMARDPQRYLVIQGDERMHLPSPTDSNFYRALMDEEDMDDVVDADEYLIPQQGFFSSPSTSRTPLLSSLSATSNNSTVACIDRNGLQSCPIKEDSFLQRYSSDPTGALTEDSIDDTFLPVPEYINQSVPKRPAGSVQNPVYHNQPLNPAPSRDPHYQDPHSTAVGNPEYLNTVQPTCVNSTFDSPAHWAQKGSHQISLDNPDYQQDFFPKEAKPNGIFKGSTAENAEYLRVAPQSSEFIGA

[8] = molecular target: T1, Eukaryotic elongation factor 2 kinase (Homo sapiens) (UniProt O00418); assay: Inhibition of eEF2K ATP labeling site in human Huh-7 cell lysate at 1 uM by KiNativ Profiling analysis relative to control; assay type: subcellular
T1 sequence (whole entry): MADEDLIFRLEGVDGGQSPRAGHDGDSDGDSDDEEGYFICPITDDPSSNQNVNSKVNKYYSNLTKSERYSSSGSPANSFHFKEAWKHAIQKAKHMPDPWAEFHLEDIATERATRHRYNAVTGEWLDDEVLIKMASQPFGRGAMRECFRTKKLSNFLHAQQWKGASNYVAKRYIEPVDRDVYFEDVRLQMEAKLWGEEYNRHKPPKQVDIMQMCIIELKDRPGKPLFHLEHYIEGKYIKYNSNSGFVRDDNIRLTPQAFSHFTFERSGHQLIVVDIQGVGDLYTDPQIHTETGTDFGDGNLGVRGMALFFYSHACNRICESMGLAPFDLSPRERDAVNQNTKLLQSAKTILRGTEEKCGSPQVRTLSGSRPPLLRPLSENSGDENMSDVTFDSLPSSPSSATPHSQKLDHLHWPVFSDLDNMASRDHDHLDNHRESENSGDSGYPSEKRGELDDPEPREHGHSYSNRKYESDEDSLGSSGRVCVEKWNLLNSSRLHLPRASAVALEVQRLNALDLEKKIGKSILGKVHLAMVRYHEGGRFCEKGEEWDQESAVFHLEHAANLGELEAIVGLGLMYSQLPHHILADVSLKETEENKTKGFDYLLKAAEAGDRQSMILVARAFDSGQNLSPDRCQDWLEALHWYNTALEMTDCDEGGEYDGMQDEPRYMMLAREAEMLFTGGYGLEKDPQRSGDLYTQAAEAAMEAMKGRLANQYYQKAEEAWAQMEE

[9] = molecular target: Ephrin type-B receptor 3 (Homo sapiens) (UniProt P54753); assay: Inhibition of EPHB3 (unknown origin) at 10 uM by Ambit Kinomescan binding assay
[10] = molecular target: T2, Dual specificity mitogen-activated protein kinase kinase 6 (Homo sapiens) (UniProt P52564); assay: Inhibition of MAP2K6 Lys1 labeling site in human A-375 cells at 0.5 uM by KiNativ Profiling analysis relative to control; assay type: cell-based
T2 sequence (whole entry): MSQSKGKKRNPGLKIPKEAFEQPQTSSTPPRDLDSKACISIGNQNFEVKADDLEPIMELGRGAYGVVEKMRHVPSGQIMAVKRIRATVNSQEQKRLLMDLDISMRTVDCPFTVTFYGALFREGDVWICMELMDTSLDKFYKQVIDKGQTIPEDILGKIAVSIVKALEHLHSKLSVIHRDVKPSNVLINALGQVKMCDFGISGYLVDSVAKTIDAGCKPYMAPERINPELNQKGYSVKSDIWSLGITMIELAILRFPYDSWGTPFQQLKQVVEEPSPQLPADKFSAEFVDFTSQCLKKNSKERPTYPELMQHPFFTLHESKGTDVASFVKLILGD

[11] = molecular target: MAST1/MAST2 (Homo sapiens) (UniProt Q9Y2H9+Q6P0Q8); assay: Inhibition of MAST1/2 K2 labeling site in human Huh-7 cells at 1 uM by KiNativ Profiling analysis relative to control; assay type: cell-based
[12] = molecular target: Tyrosine-protein kinase receptor Tie-1 (Homo sapiens) (UniProt P35590); assay: Inhibition of TIE1 (unknown origin) at 10 uM by Ambit Kinomescan binding assay relative to control; values are per cent of control
[13] = molecular target: T3, NUAK family SNF1-like kinase 1 (Homo sapiens) (UniProt O60285); assay: Inhibition of NuaK1 K2 labeling site in human Huh-7 cells at 10 uM by KiNativ Profiling analysis relative to control; assay type: cell-based
T3 sequence (whole entry): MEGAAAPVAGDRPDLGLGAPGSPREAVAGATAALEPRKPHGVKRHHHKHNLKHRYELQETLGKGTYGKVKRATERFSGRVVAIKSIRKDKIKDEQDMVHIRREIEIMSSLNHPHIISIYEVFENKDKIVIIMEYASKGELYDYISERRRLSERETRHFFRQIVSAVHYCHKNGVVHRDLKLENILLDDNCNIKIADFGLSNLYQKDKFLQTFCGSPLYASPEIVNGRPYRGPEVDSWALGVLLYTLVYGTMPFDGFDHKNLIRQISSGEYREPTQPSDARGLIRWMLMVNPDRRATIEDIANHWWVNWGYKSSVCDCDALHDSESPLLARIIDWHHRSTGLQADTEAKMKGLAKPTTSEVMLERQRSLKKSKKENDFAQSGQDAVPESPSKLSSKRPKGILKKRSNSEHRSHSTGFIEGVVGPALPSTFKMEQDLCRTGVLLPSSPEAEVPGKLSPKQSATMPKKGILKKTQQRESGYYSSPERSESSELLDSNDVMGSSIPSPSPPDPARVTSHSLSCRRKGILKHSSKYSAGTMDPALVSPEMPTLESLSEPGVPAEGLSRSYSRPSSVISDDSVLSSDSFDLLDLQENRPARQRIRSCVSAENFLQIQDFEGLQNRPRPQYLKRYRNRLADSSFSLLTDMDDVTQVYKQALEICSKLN

[14] = system: Epidermal growth factor receptor (Homo sapiens), P00533 [L858R,T790M]; assay: Inhibition of EGFR L858R/T790M mutant (unknown origin) at 1 uM by Ambit Kinomescan binding assay relative to control
Epidermal growth factor receptor (Homo sapiens), P00533 [L858R,T790M], sequence (P00533 whole entry T790M/L858R, looked up): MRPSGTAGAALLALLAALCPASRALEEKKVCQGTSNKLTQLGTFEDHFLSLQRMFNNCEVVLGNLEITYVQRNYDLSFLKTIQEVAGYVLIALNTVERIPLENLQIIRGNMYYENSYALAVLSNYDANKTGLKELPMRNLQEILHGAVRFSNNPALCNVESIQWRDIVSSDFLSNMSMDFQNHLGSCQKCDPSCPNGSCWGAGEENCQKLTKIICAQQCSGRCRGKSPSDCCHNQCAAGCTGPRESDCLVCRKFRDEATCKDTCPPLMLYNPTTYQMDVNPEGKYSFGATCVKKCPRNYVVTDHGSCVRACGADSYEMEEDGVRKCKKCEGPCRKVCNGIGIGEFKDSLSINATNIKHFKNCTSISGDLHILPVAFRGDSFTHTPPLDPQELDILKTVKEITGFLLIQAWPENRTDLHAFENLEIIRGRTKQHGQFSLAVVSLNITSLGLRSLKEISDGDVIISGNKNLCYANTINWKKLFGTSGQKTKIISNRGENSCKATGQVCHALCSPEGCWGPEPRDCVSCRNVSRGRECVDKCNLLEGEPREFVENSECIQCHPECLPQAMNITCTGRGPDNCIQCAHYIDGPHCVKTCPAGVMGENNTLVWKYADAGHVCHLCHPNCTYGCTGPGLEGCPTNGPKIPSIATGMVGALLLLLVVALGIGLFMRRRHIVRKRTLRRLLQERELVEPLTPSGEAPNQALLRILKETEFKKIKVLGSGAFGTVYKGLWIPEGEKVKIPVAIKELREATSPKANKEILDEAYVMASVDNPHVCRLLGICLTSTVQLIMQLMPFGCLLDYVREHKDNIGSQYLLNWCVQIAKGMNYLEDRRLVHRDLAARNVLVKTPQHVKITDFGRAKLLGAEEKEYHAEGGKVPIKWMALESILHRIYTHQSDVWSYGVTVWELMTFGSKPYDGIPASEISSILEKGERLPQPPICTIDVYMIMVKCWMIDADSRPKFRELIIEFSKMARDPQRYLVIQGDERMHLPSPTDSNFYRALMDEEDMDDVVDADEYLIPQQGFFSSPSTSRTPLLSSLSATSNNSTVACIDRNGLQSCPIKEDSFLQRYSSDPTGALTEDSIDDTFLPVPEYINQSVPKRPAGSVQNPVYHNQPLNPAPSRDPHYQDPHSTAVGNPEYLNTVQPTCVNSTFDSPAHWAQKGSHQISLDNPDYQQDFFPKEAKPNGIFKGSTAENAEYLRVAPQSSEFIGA

With `CNc1cc(Oc2cc(C(=O)Nc3cc(N4CCN(C)CC4)cc(C(F)(F)F)c3)ccc2C)ncn1` the inhibition [1] was -0.2%, the inhibition at 1 µM [2] was -44.2% and the inhibition [3] was 9.5%. For the same molecule, the inhibition at 1 µM [4] was 0.5%, the inhibition [5] was 6% and the inhibition [6] was 15.3%. It also gave an inhibition [7] of -5.2% and an inhibition [8] of -3.5%.

For `CCN1CCN(Cc2ccc(NC(=O)c3ccc(C)c(Oc4ccnc5[nH]ccc45)c3)cc2C(F)(F)F)CC1`, the inhibition [9] was “inactive”, the inhibition [10] was 4.5% and the inhibition [11] was -7.1%. It also gave a residual activity [12] of 0.95% and an inhibition [13] of 35.4%.

For `CCN1CCN(Cc2ccc(NC(=O)c3ccc(C)c(/C=C/c4cnc5[nH]ccc5c4OC)c3)cc2C(F)(F)F)CC1`, the inhibition [14] was 100%.
